Consider nine compounds from ChEMBL document CHEMBL1201862, “PubChem BioAssay data set” (2004).

Structures are written as SMILES.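 Step 1: Grow cells in 96-well plates. Step 2: Expose to compound for 48 hours at 5 concentrations. Step 3: Interpolate endpoints linearly; if unreached, use highest concentration. GI50: concentration for 50% inhibition of growth.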 The source made the active and inactive calls. Cut-off read from the data, not from the text of the source: active = GI50 up to about 1.1 µM and inactive = higher.

Test in all cases: NCI-60 cell line screen, 48 h
Experiment [1] has as its system A549.
For experiment [2], the system named is SK-MEL-2.
The subject of experiment [3] is KM12.
Experiment [4] concerns NCI-H460.
In experiment [5] the test system is HOP-92.
Experiment [6] has as its system OVCAR-3.
The test system of experiment [7] is UO-31.
The test system of experiment [8] is SF-268.
Experiment [9] relates to SK-OV-3.
Experiment [10] has as its system NCI-H226.
Experiment [11] concerns CCRF-CEM.
The test system of experiment [12] is OVCAR-4.
Experiment [13] concerns NCI-H522.
Experiment [14] concerns OVCAR-8.
Experiment [15] has as its system SF-295.
The test system of experiment [16] is HCT-116.
Experiment [17] relates to SR.

For the compound `CCOc1ccc(NC(=O)C2=C(C)NC(C)=C(C(=O)Nc3ccc(OCC)cc3)C2c2ccccc2)cc1`, the GI50 is > 100 µM (inactive) in experiment [1]; 56.8 µM (inactive) in experiment [2]; 41.7 µM (inactive) in experiment [3]; > 100 µM (inactive) in experiment [4]; > 100 µM (inactive) in experiment [5]; > 100 µM (inactive) in experiment [6]. The GI50 was 29.2 µM (inactive) in experiment [7]; 98.6 µM (inactive) in experiment [8]; > 100 µM (inactive) in experiment [9]; > 100 µM (inactive) in experiment [10]; 31.3 µM (inactive) in experiment [11]; > 100 µM (inactive) in experiment [12]. The GI50 is 38.3 µM (inactive) in experiment [13], > 100 µM (inactive) in [14] and > 100 µM (inactive) in [15].
As to `CC1CC(c2cccc3c2OCO3)=Nc2ccccc2S1` (centres undefined), the GI50 in experiment [1], in experiment [2], in experiment [3], in experiment [4], in experiment [5] and in [6] was > 100 µM (inactive) throughout. The GI50 in experiment [7], in [8], in [9], in experiment [10], in experiment [11] and in [12] was > 100 µM (inactive) throughout. Besides, the GI50 in [13], in experiment [14] and in experiment [15] was > 100 µM (inactive) each time.
As to `O=C1CCC(=O)c2sccc2N1`, the GI50 in experiment [1], in [2], in experiment [3], in [4], in experiment [5] and in [6] was > 100 µM (inactive) each time. The GI50 in [7], in experiment [16], in [8], in experiment [9], in experiment [10] and in experiment [11] was > 100 µM (inactive) throughout. Moreover, the GI50 in [12], in [13], in experiment [14] and in experiment [15] was > 100 µM (inactive) each time.
Consider `Nc1ncnc2c1nnn2C1C=C(CO)C(O)C1O` (centres undefined), for which the GI50 is 58.1 µM (inactive) in experiment [1]; > 60 µM (inactive) in experiment [2]; 36.6 µM (inactive) in experiment [3]; 40.8 µM (inactive) in experiment [4]; 14.3 µM (inactive) in experiment [5]; > 100 µM (inactive) in experiment [6]. The GI50 in [7] was 42.5 µM (inactive); in experiment [16], 27.8 µM (inactive); in experiment [8] it was 42.7 µM (inactive); in experiment [9], > 100 µM (inactive); in [10], > 100 µM (inactive); in experiment [11] it was 50.7 µM (inactive). Besides, the GI50 in [12] was 32.4 µM (inactive); in experiment [13] it was > 100 µM (inactive); in [14], 39.4 µM (inactive); in experiment [15] it was > 100 µM (inactive).
Turning to `CN(C)CC/C(=N\Nc1ccc(Cl)cc1)c1ccccc1`, the GI50 in [1] is 1.47 µM (inactive); in [2], 1.86 µM (inactive); in experiment [3] it was 0.589 µM (active); in experiment [4] it was 1.1 µM (active); in experiment [6], 1.51 µM (inactive); in experiment [7], 0.25 µM (active). In addition, the GI50 in experiment [16] is 1.18 µM (inactive); in experiment [8], 0.566 µM (active); in experiment [17], 0.415 µM (active); in experiment [9], 2.22 µM (inactive); in experiment [11], 0.417 µM (active); in experiment [12] it was 1.77 µM (inactive). Also, the GI50 in [13] was 1.32 µM (inactive); in [14], 2.24 µM (inactive); in experiment [15], 0.374 µM (active).
With `O=C(C(=O)c1ccc(Cc2ccc(C(=O)C(=O)c3ccccc3)cc2)cc1)c1ccccc1`, the GI50 in experiment [1], in experiment [2], in experiment [3], in experiment [4], in [5] and in experiment [6] was > 100 µM (inactive) in each case. The GI50 was > 100 µM (inactive) in experiment [7]; > 100 µM (inactive) in experiment [16]; > 100 µM (inactive) in [8]; > 100 µM (inactive) in experiment [9]; > 100 µM (inactive) in experiment [10]; 61.5 µM (inactive) in [11]. Moreover, the GI50 in [12], in experiment [13], in [14] and in [15] was > 100 µM (inactive) each time.
As to `CS/C(=N/C#N)NCCc1c[nH]c2ccccc12`, the GI50 in experiment [1] was > 100 µM (inactive); in experiment [3] it was > 100 µM (inactive); in [4], > 100 µM (inactive); in [6], > 100 µM (inactive); in experiment [7], 49 µM (inactive); in experiment [16] it was > 100 µM (inactive). The GI50 in [8] is > 100 µM (inactive); in experiment [17] it was 60.3 µM (inactive); in experiment [9], > 100 µM (inactive); in experiment [10] it was > 100 µM (inactive); in [11], 48.2 µM (inactive); in [12], > 100 µM (inactive). The GI50 in [14] and in experiment [15] was > 100 µM (inactive) in each case.
In the case of `O=C(CC(CC(=O)Oc1c(Br)cc(Br)cc1C(=O)O)C(=O)Oc1c(Br)cc(Br)cc1C(=O)O)Oc1c(Br)cc(Br)cc1C(=O)O`, the GI50 in [1] was 47.5 µM (inactive); in experiment [2], 39.2 µM (inactive); in experiment [3], 50.7 µM (inactive); in experiment [4] it was 56.8 µM (inactive); in [5], 16.5 µM (inactive); in experiment [6] it was 47.8 µM (inactive). Further, the GI50 in [7] is 36.5 µM (inactive); in [16] it was 43.6 µM (inactive); in experiment [8], 6.12 µM (inactive); in [9], 54.7 µM (inactive); in [10] it was 20.7 µM (inactive); in experiment [11] it was 41.6 µM (inactive). For the same compound, the GI50 was 50.2 µM (inactive) in experiment [12], 22.2 µM (inactive) in [13], 19.3 µM (inactive) in experiment [14] and 71.3 µM (inactive) in experiment [15].
On to `CC(C)[C@@H](COC(C)(C)C)/N=C/N1CCc2c([nH]c3ccccc23)C1`, for which the GI50 was > 100 µM (inactive) in [1]; > 100 µM (inactive) in [2]; > 100 µM (inactive) in [3]; > 100 µM (inactive) in experiment [4]; 21.5 µM (inactive) in experiment [5]; > 100 µM (inactive) in experiment [6]. In addition, the GI50 in experiment [7] was 84.9 µM (inactive); in experiment [16] it was > 100 µM (inactive); in experiment [8], > 100 µM (inactive); in [9], > 100 µM (inactive); in [10], > 100 µM (inactive); in [11], > 100 µM (inactive). Also, the GI50 in [12], in [13], in [14] and in experiment [15] was > 100 µM (inactive) in each case.
